Test results reported in article PMC6225228, “Design, Synthesis and Evaluation of N-pyrazinylbenzamides as Potential Antimycobacterial Agents” (Molecules : A Journal of Synthetic Chemistry and Natural …, 2018).
In brackets after ≈: the same amount, converted by molar mass. Read-outs that look alike come from different tables or passages of the source.

What was measured:
Candida tropicalis 156 = experiment: Antifungal microdilution broth, CT; format: cell-based; settings: read-out: MIC CT
[1] = tested on: Aspergillus fumigatus 231; experiment: Antifungal microdilution broth, AF; format: cell-based; settings: read-out: MIC AF
[2] = tested on: Enterococcus sp. J 14365/08; experiment: Antibacterial microdilution broth, EF; format: cell-based; settings: Enterococcus, read-out: MIC EF
Candida glabrata 20/I = experiment: Antifungal microdilution broth, CG; format: cell-based; settings: Nakaseomyces glabratus, 20/I, read-out: MIC CG
Candida krusei E28 = experiment: Antifungal microdilution broth, CK; format: cell-based; settings: Pichia kudriavzevii, read-out: MIC CK
[3] = tested on: Staphylococcus epidermidis H 6966/08; experiment: Antibacterial microdilution broth, SE; format: cell-based; settings: read-out: MIC SE
[4] = tested on: M. kansasii CNCTC My 235/80 (ATCC 12478); experiment: Antimycobacterial microdilution MABA, M. kansasii; format: cell-based, Mycobacterium kansasii; settings: for M. kans. ATCC 12478 MIC: Middlebrook 7H9 with OADC, pH 6.6, MABA; for MIC: Mycobacterium kansasii, ATCC12478, pH 6.6, read-out: M. kans. ATCC 12478 MIC, Middlebrook 7H9 with OADC, pH 6.6, MABA
[5] = tested on: Staphylococcus aureus H 5996/08 methicillin resistant; experiment: microbe, parasite or virus in culture; format: cell-based; settings: for MIC: Staphylococcus aureus, MRSA, read-out: MIC MRSA
[6] = tested on: M. avium ssp. avium CNCTC My 80/72 (ATCC 15769); experiment: Antimycobacterial microdilution MABA, M. avium; format: cell-based, Mycobacterium avium; settings: for M. avium ATCC 15769 MIC: Middlebrook 7H9 with OADC, pH 6.6, MABA; for MIC: Mycobacterium avium, ATCC15769, pH 6.6, read-out: M. avium ATCC 15769 MIC
[7] = tested on: Pseudomonas aeruginosa CCM 1961; experiment: Antibacterial microdilution broth, PA; format: cell-based; settings: Pseudomonas aeruginosa, read-out: MIC PA
[8] = tested on: Mycobacterium smegmatis CCM 4622 (ATCC 607); experiment: Antimycobacterial microdilution, M. smegmatis; format: cell-based; settings: Mycolicibacterium smegmatis, read-out: M. smeg. ATCC 607 MIC
Trichosporon asahii 1188 = experiment: Antifungal microdilution broth, TA; format: cell-based; settings: read-out: MIC TA
[9] = tested on: Trichophyton interdigitale 445; experiment: Antifungal microdilution broth, TI; format: cell-based; settings: read-out: MIC TI
[10] = tested on: Escherichia coli CCM 4517; experiment: Antibacterial microdilution broth, EC; format: cell-based; settings: Escherichia coli, read-out: MIC EC
[11] = tested on: Mycobacterium tuberculosis H37Rv CNCTC My 331/88 (ATCC 27294); experiment: Antimycobacterial microdilution MABA, M. tuberculosis; format: cell-based; settings: for MIC: Mycobacterium tuberculosis, read-out: Mtb H37Rv ATCC 27294 MIC, Middlebrook 7H9 with OADC growth supplement, pH = 6.6, MABA; for Mtb H37Rv ATCC 27294 MIC: Middlebrook 7H9 with OADC growth supplement, pH = 6.6, MABA
[12] = tested on: Staphylococcus aureus CCM 4516/08; experiment: Antibacterial microdilution broth, SA; format: cell-based
[13] = tested on: Candida albicans ATCC 44859; experiment: Antifungal microdilution broth, CA; format: cell-based; settings: Candida albicans, read-out: MIC CA
[14] = tested on: Lichtheimia corymbifera 272; experiment: Antifungal microdilution broth, LC; format: cell-based; settings: read-out: MIC LC
[15] = Aspergillus fumigatus, 231, 24 h
[16] = Aspergillus fumigatus, 231, 48 h
[17] = Staphylococcus epidermidis, H6966/08, 24 h
[18] = Staphylococcus epidermidis, H6966/08, 48 h
[19] = Trichosporon asahii, 1188, 24 h
[20] = Trichosporon asahii, 1188, 48 h
[21] = Trichophyton interdigitale, 445, 72 h
[22] = Trichophyton interdigitale, 445, 120 h
[23] = Staphylococcus aureus, CCM4516, 24 h, read-out: MIC SA, 24 h
[24] = Staphylococcus aureus, CCM4516, 48 h, read-out: MIC SA, 48 h
[25] = Lichtheimia corymbifera, 272, 24 h
[26] = Lichtheimia corymbifera, 272, 48 h

O=C(c1ccc(Cl)cc1)N(C(=O)c1ccc(Cl)cc1)c1cnccn1 [Compound 1l-SP]
MIC (Candida tropicalis 156; Candida tropicalis, 156, 24 h): > 125 µM
MIC (Candida tropicalis 156; Candida tropicalis, 156, 48 h): > 125 µM
MIC [1, 15]: > 125 µM
MIC [1, 16]: > 125 µM
MIC ([2]; SP.J14365/08, 24 h): > 125 µM
MIC ([2]; SP.J14365/08, 48 h): > 125 µM
MIC (Candida glabrata 20/I; 24 h): > 125 µM
MIC (Candida glabrata 20/I; 48 h): > 125 µM
MIC (Candida krusei E28; E28, 24 h): > 125 µM
MIC (Candida krusei E28; E28, 48 h): > 125 µM
MIC [3, 17]: > 125 µM
MIC [3, 18]: > 125 µM
M. kans. ATCC 12478 MIC [4]: >100 µg/mL
MIC [4]: > 100 µg/mL
MIC ([5]; 24 h): > 125 µM
MIC ([5]; 48 h): > 125 µM
M. avium ATCC 15769 MIC [6]: >100 µg/mL
MIC [6]: > 100 µg/mL
MIC ([7]; CCM1961, 72 h): > 125 µM
MIC ([7]; CCM1961, 120 h): > 125 µM
MIC [8]: ≥ 500 µg/mL
MIC (Trichosporon asahii 1188; [19]): > 125 µM
MIC (Trichosporon asahii 1188; [20]): > 125 µM
MIC [9, 21]: > 125 µM
MIC [9, 22]: > 125 µM
MIC ([10]; CCM4517, 24 h): > 125 µM
MIC ([10]; CCM4517, 48 h): > 125 µM
MIC [11]: 50 µg/mL (≈ 134 µM)
MIC [12, 23]: > 125 µM
MIC [12, 24]: > 125 µM
MIC ([13]; ATCC44859, 24 h): > 125 µM
MIC ([13]; ATCC44859, 48 h): > 125 µM
MIC [14, 25]: > 125 µM
MIC [14, 26]: > 125 µM
melting point: 153.1 to 153.8 °C

O=C(Nc1cnccn1)c1ccc(Cl)cc1 [Compound 1l]
MIC (Candida tropicalis 156; Candida tropicalis, 156, 24 h): > 125 µM
MIC (Candida tropicalis 156; Candida tropicalis, 156, 48 h): > 125 µM
MIC [1, 15]: > 125 µM
MIC [1, 16]: > 125 µM
MIC ([2]; SP.J14365/08, 24 h): > 125 µM
MIC ([2]; SP.J14365/08, 48 h): > 125 µM
MIC (Candida glabrata 20/I; 24 h): > 125 µM
MIC (Candida glabrata 20/I; 48 h): > 125 µM
MIC (Candida krusei E28; E28, 24 h): > 125 µM
MIC (Candida krusei E28; E28, 48 h): > 125 µM
MIC [3, 17]: > 125 µM
MIC [3, 18]: > 125 µM
MIC [4]: 50 µg/mL (≈ 214 µM)
MIC ([5]; 24 h): > 125 µM
MIC ([5]; 48 h): > 125 µM
M. avium ATCC 15769 MIC [6]: >100 µg/mL
MIC [6]: > 100 µg/mL
MIC ([7]; CCM1961, 72 h): > 125 µM
MIC ([7]; CCM1961, 120 h): > 125 µM
MIC [8]: ≥ 500 µg/mL
MIC (Trichosporon asahii 1188; [19]): > 125 µM
MIC (Trichosporon asahii 1188; [20]): > 125 µM
MIC [9, 21]: > 125 µM
MIC [9, 22]: > 125 µM
MIC ([10]; CCM4517, 24 h): > 125 µM
MIC ([10]; CCM4517, 48 h): > 125 µM
MIC [11]: 50 µg/mL (≈ 214 µM)
MIC [12, 23]: > 125 µM
MIC [12, 24]: > 125 µM
MIC ([13]; ATCC44859, 24 h): > 125 µM
MIC ([13]; ATCC44859, 48 h): > 125 µM
MIC [14, 25]: > 125 µM
MIC [14, 26]: > 125 µM
melting point: 182.6 to 184.3 °C

O=C(Nc1cnc(Cl)cn1)c1ccccc1 [Compound 2a]
MIC (Candida tropicalis 156; Candida tropicalis, 156, 24 h): > 500 µM
MIC (Candida tropicalis 156; Candida tropicalis, 156, 48 h): > 500 µM
MIC [1, 15]: > 500 µM
MIC [1, 16]: > 500 µM
MIC ([2]; SP.J14365/08, 24 h): > 500 µM
MIC ([2]; SP.J14365/08, 48 h): > 500 µM
MIC (Candida glabrata 20/I; 24 h): > 500 µM
MIC (Candida glabrata 20/I; 48 h): > 500 µM
MIC (Candida krusei E28; E28, 24 h): > 500 µM
MIC (Candida krusei E28; E28, 48 h): > 500 µM
MIC [3, 17]: 500 µM (≈ 117 µg/mL)
MIC [3, 18]: 500 µM (≈ 117 µg/mL)
MIC [4]: > 100 µg/mL
MIC ([5]; 24 h): 250 µM (≈ 58.4 µg/mL)
MIC ([5]; 48 h): 250 µM (≈ 58.4 µg/mL)
MIC [6]: > 100 µg/mL
MIC ([7]; CCM1961, 72 h): > 500 µM
MIC ([7]; CCM1961, 120 h): > 500 µM
MIC [8]: ≥ 500 µg/mL
MIC (Trichosporon asahii 1188; [19]): > 500 µM
MIC (Trichosporon asahii 1188; [20]): > 500 µM
MIC [9, 21]: > 500 µM
MIC [9, 22]: > 500 µM
MIC ([10]; CCM4517, 24 h): > 500 µM
MIC ([10]; CCM4517, 48 h): > 500 µM
Mtb H37Rv ATCC 27294 MIC [11]: >100 µg/mL
MIC [11]: > 100 µg/mL
MIC [12, 23]: 250 µM (≈ 58.4 µg/mL)
MIC [12, 24]: 250 µM (≈ 58.4 µg/mL)
MIC ([13]; ATCC44859, 24 h): > 500 µM
MIC ([13]; ATCC44859, 48 h): > 500 µM
MIC [14, 25]: > 500 µM
MIC [14, 26]: > 500 µM
melting point: 162.5 to 163.5 °C

CC(=O)Oc1cccc(C(=O)Nc2cnc(Cl)cn2)c1 [Compound 2c-Ac]
MIC (Candida tropicalis 156; Candida tropicalis, 156, 24 h): > 125 µM
MIC (Candida tropicalis 156; Candida tropicalis, 156, 48 h): > 125 µM
MIC [1, 15]: > 125 µM
MIC [1, 16]: > 125 µM
MIC ([2]; SP.J14365/08, 24 h): > 125 µM
MIC ([2]; SP.J14365/08, 48 h): > 125 µM
MIC (Candida glabrata 20/I; 24 h): > 125 µM
MIC (Candida glabrata 20/I; 48 h): > 125 µM
MIC (Candida krusei E28; E28, 24 h): > 125 µM
MIC (Candida krusei E28; E28, 48 h): > 125 µM
MIC ([3]; 24 h): >125 µM
MIC ([3]; 48 h): >125 µM
MIC [3, 17]: > 125 µM
MIC [3, 18]: > 125 µM
M. kans. ATCC 12478 MIC [4]: >100 µg/mL
MIC [4]: > 100 µg/mL
MIC MRSA ([5]; 24 h): >125 µM
MIC MRSA ([5]; 48 h): >125 µM
MIC ([5]; 24 h): > 125 µM
MIC ([5]; 48 h): > 125 µM
M. avium ATCC 15769 MIC [6]: >100 µg/mL
MIC [6]: > 100 µg/mL
MIC ([7]; CCM1961, 72 h): > 125 µM
MIC ([7]; CCM1961, 120 h): > 125 µM
MIC [8]: 250 µg/mL (≈ 857 µM)
MIC (Trichosporon asahii 1188; [19]): > 125 µM
MIC (Trichosporon asahii 1188; [20]): > 125 µM
MIC [9, 21]: > 125 µM
MIC [9, 22]: > 125 µM
MIC ([10]; CCM4517, 24 h): > 125 µM
MIC ([10]; CCM4517, 48 h): > 125 µM
Mtb H37Rv ATCC 27294 MIC [11]: >100 µg/mL
MIC [11]: > 100 µg/mL
MIC ([12]; 24 h, read-out: MIC SA): >125 µM
MIC ([12]; 48 h, read-out: MIC SA): >125 µM
MIC [12, 23]: > 125 µM
MIC [12, 24]: > 125 µM
MIC ([13]; ATCC44859, 24 h): > 125 µM
MIC ([13]; ATCC44859, 48 h): > 125 µM
MIC [14, 25]: > 125 µM
MIC [14, 26]: > 125 µM
melting point: 184.1 to 184.6 °C
